Measured values taken from patent US6399614B1, “1-(N-phenylaminoalkyl)piperazine derivatives substituted at position 2 of the phenyl ring” (Recordati S.A. Chemical and Pharmaceutical Company, priority 1997, dated 2002).
Where two headings read alike, the source gives them in different places.

Key:
[1] = test system: rhythmic bladder voiding contractions; assay: Volume-induced rhythmic bladder voiding contractions in anaesthetized rats; type: in vivo, rat; conditions: for ED (10 min disappearance of contractions) / ED50: Rattus norvegicus; for ED (10 min disappearance of contractions): read-out: ED10 min; for ED50: read-out: ED50 (frequency); for pharmacological activity on bladder voiding contractions (in words): nitro group at position 3 or 4 of the aniline ring
Protocol: Female Sprague Dawley rats weighing 225-275 g (Crl: CDo BR, Charles River Italia) were used. The animals were housed with free access to food and water and were maintained on a forced 12 h alternating light-dark cycle at 22-24° C. for at least one week, except during the experiment. The activity on the rhythmic bladder voiding contractions was evaluated according to the method of Dray (J. Pharmacol. Methods, 13:157, 1985), with some modifications as in Guarneri (Pharmacol. Res., 27:173, 1993). Briefly, rats were anesthetized by subcutaneous injection of 1.25 g/kg (5 ml/kg) urethane, after which the urinary bladder was catheterized via the urethra using PE 50 polyethylene tubing filled with physiological saline. The catheter was tied in place with a ligature around the external urethral orifice and was connected with conventional pressure transducers (Statham P23 ID/P23 XL). […] The bladder was then filled via the recording catheter by incremental volumes of warm (37° C.) saline until reflex bladder voiding contractions occurred (usually 0.8-1.5 ml). For intravenous (i.v.) injection of bioactive compounds, PE 50 polyethylene tubing filled with physiological saline was inserted into the jugular vein. From the cystometrogram, the number of contractions recorded 15 min before (basal values) and after treatment, as well as the mean amplitude of these contractions (mean height of the peaks in mmHg) was evaluated.
Since most compounds produced an effect that was relatively rapid in onset and led to a complete cessation of bladder contractions, bioactivity was conveniently estimated by measuring the duration of bladder quiescence (i.e., the duration of time during which no contractions occurred). The number of animals tested showing a reduction in the number of contractions >30% of that observed in the basal period was also recorded.
Also computed in this manner were extrapolated doses which induced a reduction of the number of contractions of greater than 30% in 50% of treated rats (ED50, frequency) by the method of Bliss (Bliss C. I., Quart. J. Pharm. Pharmacol. 11, 192-216, 1938). After the suppressive effects of drug injection wore off, the height of the contractile peaks was compared with the height of the peaks previously recorded after the control intravenous administration of vehicle. The potency of the tested compounds (ED50 value: the extrapolated doses inducing a 30% reduction of amplitude of the contractions in 50% of treated rats) was evaluated on a quantal basis by the method of Bliss (Bliss C. I., Quart. J. Pharm. Pharmacol. 11, 192-216, 1938).

urinary bladder = assay: Cystometric parameters (cystometrogram) in conscious rats; type: in vivo, rat; conditions: for BVC after treatment / MP after treatment: mean ± S.E.; for change in vivo at 0.3 mg/kg / change in vivo at 1 mg/kg: Rattus norvegicus, iv, 0.25 h, after vs before; for change in vivo at 0.3 mg/kg: i.v. 300 μg/kg; for change in vivo at 1 mg/kg: i.v. 1000 μg/kg
Protocol: Male Sprague Dawley rats (Crl: CDo BR) weighing 250-350 g were used. The animals were housed with free access to food and water and maintained on a forced 12 h alternating light-dark cycle at 22-24° C. for at least one week, except during performance of the experiment. To quantify urodynamic parameters in conscious rats, cystometrographic studies were performed using procedures previously described (Guarneri et al., Pharmacol. Res., 24:175, 1991). […] An approximately 10 mm long midline incision was made in the shaved and cleaned abdominal wall. The urinary bladder was gently freed from adhering tissues, emptied, and then cannulated, via an incision at the dome, with a polyethylene cannula (Portex PP30), which was permanently sutured with silk thread. The cannula was exteriorized through a subcutaneous tunnel in the retroscapular area, where it was connected with a plastic adapter to avoid the risk of removal by the animal. For intravenous (i.v.) injection of test compounds, a PE 50 polyethylene tubing filled with physiological saline was inserted into the jugular vein and exteriorized in the retroscapular area. The rats were utilized exclusively one day after implantation. On the day of the experiment, the rats were placed in Bollman's cages, after a stabilization period of 20 min, and the free tip of the bladder catheter was connected through a T-shaped tube to a pressure transducer (Bentley T 800/Marb P 82) and to a peristaltic pump (Gilson minipuls 2) for a continuous infusion, at the constant rate of 0.1 ml/min, of saline solution into the urinary bladder. The intraluminal pressure signal during infusion was continuously recorded on a polygraph (Battaglia Rangoni KO 380 with ADCl/T amplifier).
Two urodynamic parameters were evaluated: bladder volume capacity (BVC) and micturition pressure (MP). BVC (in ml) is defined as the minimum volume infused after which detrusor contraction (followed by micturition) occurs. MP (in mm Hg) is defined as the maximal intravesical pressure induced by the contraction of detrusor during micturition. Basal BVC and MP values were calculated as the means of the first two recorded cystometrograms. At this point in the assay, the infusion was interrupted and the test compounds were administered. Fifteen minutes after intravenous administration two additional cystometrograms were recorded in each animal and the mean values of the two cystometrographic parameters were calculated. The statistical significance of the differences in urodynamic parameter values was evaluated by Student's t test for paired data.

[2] = biological target: T1, human 5-HT1A serotonergic receptor (Homo sapiens, UniProt P08908); assay: Radioreceptor binding, recombinant human 5-HT1A receptors ([3H]8-OH-DPAT, HeLa membranes); conditions: recombinant human receptor, [3H]8-OH-DPAT; Ki from IC50 by Cheng & Prusoff; read-out: Binding affinity for the 5-HT1A receptor, Ki
T1 construct: expressed in transfected cells; host or cells: HeLa
T1 sequence (P08908 1-422): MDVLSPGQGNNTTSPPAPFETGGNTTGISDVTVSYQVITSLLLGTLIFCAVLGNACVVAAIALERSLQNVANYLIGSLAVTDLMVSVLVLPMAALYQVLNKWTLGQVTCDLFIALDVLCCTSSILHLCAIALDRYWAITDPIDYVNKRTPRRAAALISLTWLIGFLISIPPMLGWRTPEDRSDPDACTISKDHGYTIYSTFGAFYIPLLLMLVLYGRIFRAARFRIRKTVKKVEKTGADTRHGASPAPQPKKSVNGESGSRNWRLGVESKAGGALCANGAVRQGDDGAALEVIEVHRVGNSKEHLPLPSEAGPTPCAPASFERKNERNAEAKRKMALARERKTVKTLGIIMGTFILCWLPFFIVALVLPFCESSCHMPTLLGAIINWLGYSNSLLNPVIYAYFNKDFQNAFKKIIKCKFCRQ
Protocol: Genomic clone G-21 coding for the human 5-HT1A serotonergic receptor is stably transfected in a human cell line (HeLa). HeLa cells were grown as monolayers in Dulbecco's modified Eagle's medium (DMEM), supplemented with 10% fetal calf serum and gentamicin ([…]), 5% CO2 at 37° C. Cells were detached from the growth flask at 95% confluence by a cell scraper and were lysed in ice-cold 5 mM Tris and 5 mM EDTA buffer (pH 7.4). Homogenates were centrifuged at 40000×g×20 min and pellets were resuspended in a small volume of ice-cold 5 mM Tris and 5 mM EDTA buffer (pH 7.4) and immediately frozen and stored at −70° C. until use. On the day of experiment, cell membranes were resuspended in binding buffer: 50 mM Tris HCl (pH 7.4), 2.5 mM MgCl2, 10 μM pargiline (Fargin et al., Nature 335, 358-360, 1988). Membranes were incubated in a final volume of 1 ml for 30 min at 30° C. with 0.2-1 nM [3H]8-OH-DPAT, in absence or presence of competing drugs; non-specific binding was determined in the presence of 10 μM 5-HT. The incubation was stopped by addition of ice-cold Tris-HCl buffer and rapid filtration through 0.2% polyethyleneimine pretreated Whatman GF/B or Schleicher & Schuell GF52 filters.
The inhibition of specific binding of the radioligands by the tested drugs was analyzed to estimate the IC50 value by using the non-linear curve-fitting program Allfit (De Lean et al., Am. J. Physiol. 235, E97-E102, 1978). The IC50 value was converted to an affinity constant (Ki) by the equation of Cheng & Prusoff (Cheng, Y. C.; Prusoff, W. H. Biochem. Pharmacol. 22, 3099-3108, 1973).

[3] = extrapolated dose inducing 10 min of disappearance of the contractions, intravenous, anaesthetized rats
[4] = extrapolated dose inducing a reduction of the number of contractions >30% in 50% of treated rats, intravenous

SMILES | Ki [2] [nM] | ED (10 min disappearance of contractions) [1, 3] [mg/kg] | ED50 [1, 4] [mg/kg] | also measured
COc1ccccc1N1CCN(CCNc2ccccc2)CC1 [Compound AA, 1-(N-phenyl-2-aminoethyl)-4-(2-methoxyphenyl)piperazine, reference compound] | – | 0.663 | 0.244 | –
COc1ccccc1N1CCN(CCN(C(=O)C2CCCCC2)c2cccc([N+](=O)[O-])c2)CC1 [Compound B, 1-[N-(3-nitrophenyl)-N-cyclohexylcarbonyl-2-aminoethyl]-4-(2-methoxypheny)piperazine, reference compound] | – | – | – | ED10 min [1, 3]: >1 mg/kg; ED50 (frequency) [1, 4]: >1 mg/kg; pharmacological activity on bladder voiding contractions (in words) [1]: pharmacological activity was abolished
COc1ccccc1N1CCN(CCN(C(=O)C2CCCCC2)c2ccc([N+](=O)[O-])cc2)CC1 [Compound C, 1-[N-(4-nitrophenyl)-N-cyclohexylcarbonyl-2-aminoethyl]-4-(2-methoxyphenyl)piperazine, reference compound] | – | > 1 | > 1 | pharmacological activity on bladder voiding contractions (in words) [1]: pharmacological activity was abolished
COc1ccccc1N1CCN(CCNc2cccc([N+](=O)[O-])c2)CC1 [Compound D, 1-[N-(3-nitrophenyl)-2-aminoethyl]-4-(2-methoxyphenyl)piperazine, reference compound] | – | > 1 | > 1 | –
COc1ccccc1N1CCN(CCNc2ccc([N+](=O)[O-])cc2)CC1 [Compound E, 1-[N-(4-nitrophenyl)-2-aminoethyl]-4-(2-methoxyphenyl)piperazine, reference compound] | – | > 1 | > 1 | –
COc1ccccc1N1CCN(CCNc2ccccc2[N+](=O)[O-])CC1 [Example 1, 1-[N-(2-nitrophenyl)-2-aminoethyl]-4-(2-methoxyphenyl)piperazine] | – | 0.192 | 0.055 | –
COc1ccc(Br)c(CN2CCN(CCNc3ccccc3OC(F)(F)F)CC2)c1 [Example 74, 1-[N-(2-trifluoromethoxyphenyl)-2-aminoethyl]-4-(2-bromo-5-methoxybenzyl)piperazine] | 2.02 | – | – | –
COc1ccc(Br)c(CN2CCN(CCN(C(=O)C3CCCCC3)c3ccccc3C#N)CC2)c1 [Example 83, 1-[N-(2-cyanophenyl)-N-cyclohexylcarbonyl-2-aminoethyl]-4-(2-bromo-5-methoxybenzyl)piperazine] | 1.31 | – | – | –
O=C(C1CCCCC1)N(CCN1CCN(c2cccc3c2ccn3C(=O)C2CCCCC2)CC1)c1ccccc1OC(F)(F)F [Example 84, 1-[N-cyclohexylcarbonyl-N-(2-trifluoromethoxyphenyl)-2-aminoethyl]-4-(1-cyclohexylcarbonyl-4-indolyl)piperazine] | 23.2 | – | – | –
CS(=O)(=O)Nc1ccccc1N(CCN1CCN(c2cccc3[nH]ccc23)CC1)C(=O)C1CCCCC1 [Example 88, 1-[N-cyclohexylcarbonyl-N-(2-methanesulphonylaminophenyl)-2-aminoethyl]-4-(4-indolyl)piperazine] | 1.03 | – | – | –

The next lines start with results.

Ki [2] [nM] | SMILES | ED (10 min disappearance of contractions) [1, 3] [mg/kg] | ED50 [1, 4] [mg/kg] | also measured
0.36 | COc1ccccc1N1CCN(CCN(C(=O)C2CCCCC2)c2ccccc2I)CC1 [Example 8] | – | – | BVC after treatment (urinary bladder; 15 min after i.v. 300 μg/kg): 0.71 ± 0.05 mL; MP after treatment (urinary bladder; 15 min after i.v. 300 μg/kg): 98.3 ± 17.2 mmHg; BVC after treatment (urinary bladder; 15 min after i.v. 1000 μg/kg): 0.88 ± 0.12 mL; MP after treatment (urinary bladder; 15 min after i.v. 1000 μg/kg): 64.8 ± 10.5 mmHg; change in vivo at 0.3 mg/kg (urinary bladder; read-out: BVC % of change): 21%; change in vivo at 0.3 mg/kg (urinary bladder; read-out: MP % of change): -15%; change in vivo at 1 mg/kg (urinary bladder; read-out: BVC % of change): 35%; change in vivo at 1 mg/kg (urinary bladder; read-out: MP % of change): -20%
1.22 | O=C(C1CCCCC1)N(CCN1CCN(c2ccccc2OC(F)(F)F)CC1)c1ccccc1OC(F)(F)F [Example 72, 1-[N-cyclohexylcarbonyl-N-(2-trifluoromethoxyphenyl)-2-aminoethyl]-4-(2-trifluoromethoxyphenyl)piperazine] | – | – | –
21.2 | COc1ccccc1N1CCN(CCN(C(=O)c2cncs2)c2ccccc2[N+](=O)[O-])CC1 [Example 73] | – | – | –
0.69 | O=C(C1CCCCC1)N(CCN1CCN(c2cccc3[nH]ccc23)CC1)c1ccccc1I [Example 76, 1-[N-cyclohexylcarbonyl-N-(2-iodophenyl)-2-aminoethyl]-4-(4-indolyl)piperazine] | – | – | –
0.58 | N#Cc1ccccc1N(CCN1CCN(c2ccccc2OC(F)(F)F)CC1)C(=O)C1CCCCC1 [Example 77, 1-[N-(2-cyanophenyl)-N-cyclohexylcarbonyl-2-aminoethyl]-4-(2-trifluoromethoxyphenyl)piperazine] | – | – | –
